According to patent publication US20070009544A1, “Anti-allergic complex molecules” (priority 1999, published 2007):
Entries after “also recorded” stand apart in the source; their conditions may differ. Marks after values point to notes of the source that are not given here. Bridge positions count the residues as written; N and C are the ends. Square brackets hold non-standard residues; d marks the D form. Ends that are not written are not given here. Peptide text beside a SMILES is read from it. Phe(4-NH2) = Nc1ccc(C[C@H](N)C(=O)O)cc1

Assays:
[1] = test system: purified rat peritoneal mast cells; assay type: cell-based
Outline: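 Intact purified rat peritoneal mast cells were incubated at 37° C with increasing peptide concentrations, then stimulated with 5 μg/ml compound 48/80 (maximal release). Histamine secretion is expressed as % of total cellular histamine after subtracting spontaneous release, as the mean of duplicates.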

[2] = test system: abdominal skin of C.R rats; assay: Rat skin test: intradermal injection of peptide, then intradermal compound 48/80 or vehicle, wheal area; assay type: in vivo
Outline: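 Peptide was injected intradermally (20 μl, in 10% DMSO/saline) at 20 or 200 μg; after 0.5 or 1 h, 20 μl compound 48/80 (0.1 mg/ml) or vehicle was injected intradermally at the same site. Wheal outlines were traced and areas measured by planimeter, reported as mean wheal area.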

[3] = test system: purified rat peritoneal mast cells; assay: Histamine secretion from intact mast cells incubated with peptide alone (secretagogue side effect); conditions: for Secretagogue (histamine secretion following incubation of mast cell with different concentrations of each peptide): no allergen; for histamine secretion from mast cells on incubation with increasing concentrations of peptide alone: no additional allergen
Protocol: Mast cells from the peritoneal cavity of C.R rats were isolated in Tyrode buffer (137 mM NaCl, 2.7 mM KC1, 1 mM MgCl2, 0.4 mM NaH2PO4, 20 mM Hepes, 1.0 mM CaCl2, 5.6 mM glucose, 1 mg/ml BSA, pH 7.2) and purified over a Ficoll gradient. A suspension of washed peritoneal cells was placed over a cushion of 30% Ficoll 400 (Pharmacia Biotech.) in buffered Saline containing 0.1% BSA; and centrifuged at 150O×g for 15 min. The purity of mast cells recovered from the bottom of the tube was >90%, as assessed by toluidine blue staining.
Purified mast cells (duplicated of 10^5 cells/0.5 ml) were incubated in Tyrode buffer with buffer or with desired concentrations of the indicated peptide for 2 h. at. 37° C. Histamine secretion was subsequently stimulated by the indicated concentration of compound 48/80 (Sigma) dissolved in Tyrode buffer. Incubation with compound 48/80 was carried out for 20 mm.in at 37° C. The reaction was terminated by placing the tubes on ice. The cells were sedimented by centrifugation at 150×g for 5 mm.in and the supernatants were collected. The amount of histamine release was determined as previously described (Aridor et al., 1990). Briefly, cell pellets were lysed using 0.1N NaOH and the volume of each sample was adjusted to 0.5 ml by H2O. Histamine content was assayed using the o-phtalaldehyde (OPT) fluorimetric method (Shore et al., 1959). Aliquots of 0.4 ml from the supernatants and cell lysates were incubated with 1.6 ml H20, 0.4 ml 1N NaOH and 0.1 ml of 10 mg/l ml OPT in methanol, for 4 min at room temperature. The reaction was terminated by the addition of 0.2 ml 3N HCl. Samples were centrifuged at 150×g for 5 min. and 0.2 ml samples were transferred to a 96 well plate. The histamine spectrofluorometric assay was run in microplates using a microplates reader (FL-600, Biotek instruments Winooski, Vt., USA). Samples were excited by light at 340 nm and read at 440 nm. Histamine release was calculated as the percentage of total histamine content (supernatant/pellet+supernatant) in each sample. Each data point represents the average of duplicate measurements. The spontaneously released histamine was subtracted.

[4] = Peptide solubility (remarks; assay medium, Tyrode buffer); assay type: physicochemical
[5] = test system: abdominal skin of C.R rats; assay: Rat skin test: topical application of peptide, then intradermal compound 48/80 or saline, wheal area; assay type: in vivo
Protocol: The hair of the abdominal area of C.R rats was carefully removed with an electric clipper and a depilatory cream. In each animal the abdominal area was divided to six equal zones that were marked by pen. Each zone was either subjected to peptide treatment or served as a control. In the first set of experiments, the peptide was topically applied as follows: 36 μl of peptide solution at the indicated concentration (dissolved in 72% DMSO in saline) was applied on desired abdominal area. In the second set of experiments, the peptide was injected intradermally as follows: 20 μl of peptide solution at different concentrations (dissolved in 10% DMSO in saline) was injected intradermally to an indicated abdominal area using a 27-gauge sterile needle.
Skin tests were performed 0.5, 1 or 2 hours following application of the peptide. Skin tests were performed by injecting intradermally 20 μl of the allergen (0.1 mg/ml compound 48/80 dissolved in saline) or saline alone, into the center of each marked area on the abdominal skin using a 27-gauge sterile needle. The allergic response was monitored by outlining with a marker the wheals which developed in response to allergen or saline treatment.
To quantitate the skin test results, the marker signs were transferred onto paper with scotch tape. The areas of the wheals were outlined and calculated by a computerized planimeter (Hewlett-Packard), as previously described (Sussman et al., 1982).

mice = assay: IgE-independent mouse conjunctivitis induced by compound 48/80, clinical score; assay type: in vivo; parameters: scale not given here; conditions: drug 2% followed by vehicle
Protocol: A murine model was chosen as an in vivo model of IgE-independent human conjunctivitis, induced by a basic secretagogue.
Six groups of mice were topically treated as described in Table 19. The first application was installed 4 times (24 hours, 21 hours, 18 hours and 30 minutes) prior to the second application.
Clinical evaluation of allergic conjunctivitis was conducted in a blind fashion by determining the extent and intensity of lid edema, chemosis, erythema and tearing.

[6] = intradermal peptide 1 mg/ml, 0.5 hour before, vehicle instead of compound 48/80
[7] = intradermal peptide 1 mg/ml, 1 hour before, vehicle instead of compound 48/80
[8] = intradermal peptide 10 mg/ml, 0.5 hour before, vehicle instead of compound 48/80
[9] = intradermal peptide 10 mg/ml, 1 hour before, vehicle instead of compound 48/80

## CC(C)C[C@@H]1NC(=O)CNC(=O)[C@H](CS)NC(=O)[C@H](CCC(=O)O)NC(=O)[C@H](CCCCN)NC(=O)[C@H](CC(C)C)NC(=O)[C@H](CC(N)=O)NC(=O)[C@H](CC(N)=O)NC(=O)[C@@H](NC(=O)[C@@H]2CCCN2C(=O)[C@H](C)NC(=O)[C@H](CC(C)C)NC(=O)[C@H](CC(C)C)NC(=O)[C@H](C)NC(=O)[C@H](CC(C)C)NC(=O)[C@H](CC(C)C)NC(=O)[C@@H](NC(=O)[C@H](C)NC(=O)[C@@H]2CCCN2C(=O)[C@H](CC(C)C)NC(=O)[C@H](CC(C)C)NC(=O)[C@H](C)NC(=O)[C@@H](NC(=O)[C@H](C)NC(=O)[C@H](C)N)C(C)C)C(C)C)CCCCNC(=O)[C@H](Cc2ccc(O)cc2)NC1=O [Peptide 2-Cyc] (H-AAVALLPAVLLALLAPKNNLKECGLY; lactam 17-C; N-terminus assumed)
[1]; Table 1, incubation with different concentrations of each peptide, then induction of the allergic reaction
  Inhibitor (degree of inhibition of histamine secretion from mast cells): + (+ Poor inhibitor (<50% inhibition))
[1]; range of peptide concentrations tested
  effect on compound 48/80 induced histamine secretion: only limited potential to block compound 48/80 induced histamine secretion
[2]; intradermal peptide
  block of compound 48/80 induced allergic reaction in vivo, rat skin: less effective than peptide 2
[2]; intradermal peptide 1 mg/ml, 0.5 hour before allergic induction
  Mean Wheal Area ± STD, Compound 48/80: 104.4 ± 45.8 (n = 5) mm^2
[2]; [6]
  Mean Wheal Area ± STD, Vehicle: 61.4 ± 30.9 (n = 5) mm^2
[2]; intradermal peptide 1 mg/ml, 1 hour before allergic induction
  Mean Wheal Area ± STD, Compound 48/80: 84.5 ± 29.7 (n = 6) mm^2
[2]; [7]
  Mean Wheal Area ± STD, Vehicle: 54.6 ± 12.1 (n = 6) mm^2
[2]; intradermal peptide 10 mg/ml, 0.5 hour before allergic induction
  Mean Wheal Area ± STD, Compound 48/80: 82.6 ± 50.6 (n = 5) mm^2
[2]; [8]
  Mean Wheal Area ± STD, Vehicle: 58.8 ± 29.6 (n = 5) mm^2
[2]; intradermal peptide 10 mg/ml, 1 hour before allergic induction
  Mean Wheal Area ± STD, Compound 48/80: 75.3 ± 28.4. (n = 6) mm^2
[2]; [9]
  Mean Wheal Area ± STD, Vehicle: 45.0 ± 7.9 (n = 6) mm^2
[2]; intradermal peptide 0.5 hour before allergic induction
  reduction of compound 48/80 induced allergic reaction: significant decrease in wheal area
[2]; intradermal peptide, lower dose or 1 hour before allergic induction
  reduction of compound 48/80 induced allergic reaction: had no effect
[3]; at a concentration of 100 μg/ml
  side effects of histamine secretion in mast cells, peptide alone: only minor side effects of histamine secretion
[4]
  solubility: very poor solubility

## CC(C)C[C@H](NC(=O)CNC(=O)[C@H](CS)NC(=O)[C@H](CCC(=O)O)NC(=O)[C@H](CCCCN)NC(=O)[C@H](CC(C)C)NC(=O)[C@H](CC(N)=O)NC(=O)[C@H](CC(N)=O)NC(=O)[C@H](CCCCN)NC(=O)[C@@H]1CCCN1C(=O)[C@H](C)NC(=O)[C@H](CC(C)C)NC(=O)[C@H](CC(C)C)NC(=O)[C@H](C)NC(=O)[C@H](CC(C)C)NC(=O)[C@H](CC(C)C)NC(=O)[C@@H](NC(=O)[C@H](C)NC(=O)[C@@H]1CCCN1C(=O)[C@H](CC(C)C)NC(=O)[C@H](CC(C)C)NC(=O)[C@H](C)NC(=O)[C@@H](NC(=O)[C@H](C)NC(=O)[C@H](C)N)C(C)C)C(C)C)C(=O)N[C@@H](Cc1ccc(N)cc1)C(=O)O [WALL005] (H-AAVALLPAVLLALLAPKNNLKECGL[Phe(4-NH2)]-OH; N-terminus and C-terminus assumed)
[3]; Table 9, peptide alone
  Secretagogue (histamine secretion following incubation of mast cell with different concentrations of each peptide): +
[3]
  histamine secretion from mast cells on incubation with increasing concentrations of peptide alone: resulted in histamine secretion
[4]
  solubility: severe solubility problems

## AAVALLPAVLLALLAPKNNLKECGLY [Peptide 2]
[1]
  IC50, compound 48/80 induced histamine secretion: 400 µg/mL
[5]; peptide and saline injection, without compound 48/80
  stimulatory effect of topical peptide by itself on the cutaneous allergic reactions: no stimulatory effect
[5]; topical 1 mg/ml, Animal A, 1 hour after application
  Net wheal area, effect of peptide (alone): −8.8 mm2
[5]; topical 1 mg/ml, Animal B (footnote: 1 hour after application)
  Net wheal area, effect of peptide (alone): −5.5 mm2
[5]; topical 10 mg/ml, Animal A, 1 hour after application
  Net wheal area, effect of peptide (alone): −8.3 mm2
[5]; topical 10 mg/ml, Animal B (footnote: 1 hour after application)
  Net wheal area, effect of peptide (alone): −6.0 mm2
[5]; topical peptide 1 mg/ml, animal a, skin test 1 hour after application
  Wheal area, saline injection (control): 84.64^a mm^2
[5]; topical peptide 1 mg/ml, animal b, 2 hours after application
  Wheal area, saline injection (control): 66.91^b mm^2
[5]; topical peptide 10 mg/ml, animal a, 1 hour after application
  Wheal area, saline injection (control): 85.24^a mm^2
[5]; topical peptide 10 mg/ml, animal b, 2 hours after application
  Wheal area, saline injection (control): 66.40^b mm^2
mice; no compound 48/80
  Average Score, Erythema: 0.6
  Average Score, Lid edema: 0
  Average Score, Tearing: 0.2
  Average Score, Total score: 0.8
mice; no compound 48/80 (Table 19 group 2)
  Average Score, Chemosis: 0
[2]; Tables 17A-B, column head '0.1' (no unit), 0.5 hr prior to allergy induction
  Mean Wheal Area ± STD, Vehicle: 57.0 ± 8.3 (n = 12) mm^2
[2]; Tables 17A-B, column head '0.1' (no unit), 1 hour prior
  Mean Wheal Area ± STD, Vehicle: 56.2 ± 11.3 (n = 5) mm^2
[2]; Tables 17A-B, column head '1' (no unit), 0.5 hr prior
  Mean Wheal Area ± STD, Vehicle: 61.7 ± 13.5 (n = 19) mm^2
[2]; Tables 17A-B, column head '1' (no unit), 1 hour prior
  Mean Wheal Area ± STD, Vehicle: 50.6 ± 7.4 (n = 5) mm^2
[2]; intradermal 1 mg/ml, Animal A, 0.5 hour
  Net wheal area, effect of peptide (alone): 3.29 mm2
[2]; intradermal 1 mg/ml, Animal B, 1 hour
  Net wheal area, effect of peptide (alone): 7.0 mm2
[2]; intradermal 1 mg/ml, Animal C, 2 hours
  Net wheal area, effect of peptide (alone): 16.5 mm2
[2]; intradermal 10 mg/ml, Animal A, 0.5 hour
  Net wheal area, effect of peptide (alone): −1.68 mm2
[2]; intradermal 10 mg/ml, Animal B, 1 hour
  Net wheal area, effect of peptide (alone): −9.9 mm2
[2]; intradermal 10 mg/ml, Animal C, 2 hours
  Net wheal area, effect of peptide (alone): −3.0 mm2
[2]; [6]
  Mean Wheal Area ± STD, Vehicle: 60.7 ± 19.3 (n = 7) mm^2
[2]; [7]
  Mean Wheal Area ± STD, Vehicle: 52.3 ± 11.1 (n = 5) mm^2
[2]; intradermal peptide 1 mg/ml, animal a, 0.5 hour after injection
  Wheal area, saline injection (control): 65.78^a mm2
[2]; intradermal peptide 1 mg/ml, animal b, 1 hour
  Wheal area, saline injection (control): 119.2^b mm2
[2]; intradermal peptide 1 mg/ml, animal c, 2 hours
  Wheal area, saline injection (control): 77.31^c mm2
[2]; [8]
  Mean Wheal Area ± STD, Vehicle: 54.8 ± 11 (n = 5) mm^2
[2]; [9]
  Mean Wheal Area ± STD, Vehicle: 50.6 ± 7.411 (n = 5) mm^2
[2]; intradermal peptide 10 mg/ml, animal a, 0.5 hour
  Wheal area, saline injection (control): 60.81^a mm2
[2]; intradermal peptide 10 mg/ml, animal b, 1 hour
  Wheal area, saline injection (control): 102.3^b mm2
[2]; intradermal peptide 10 mg/ml, animal c, 2 hours
  Wheal area, saline injection (control): 57.81^c mm2
[2]; without compound 48/80
  effect of intradermal injection of peptide alone on the cutaneous allergic reactions: hardly any stimulatory effect; also recorded: no cutaneous allergic reaction
[3]; Table 1, peptide alone
  Secretagogue (histamine secretion following incubation of mast cell with different concentrations of each peptide): −

## VTVLALGALAGVGVGKNNLKECGLY [Peptide 1]
[3]; Table 9, peptide alone
  Secretagogue (histamine secretion following incubation of mast cell with different concentrations of each peptide): +
[3]
  histamine secretion from mast cells on incubation with increasing concentrations of peptide alone: resulted in histamine secretion
[3]; peptide alone, concentration range of up to 400 p.g/ml (FIG. 1A)
  stimulatory effect on histamine secretion: hardly any stimulatory effect
[4]
  solubility: no solubility problems
